The results in this text go back to paper PMC7765920 (Molecules, 2020).

Read-outs that look alike come from different tables or passages of the source.

Type in all cases: biochemical
For assay [1], the target named is T1, GST-DYRK1A-ΔC (amino acids 1–499 of rat DYRK1A) (Rattus norvegicus, UniProt Q63470).
T1 construct: containing amino acids 1–499 of rat DYRK1A; made in house; host or cells: E. coli
Nature of the assay: Kinase-GLO luminescent assay of DYRK1A catalytic activity. As to conditions: read-out: DYRK1A residual activity. The method, then: (§1) Optimization of the compounds, however, aimed predominantly at elimination of MAO-A-inhibitory activity while keeping DYRK1A inhibitory potency, and not at achieving high selectivity for DYRK1A over CLK1. The tests were performed as described by us before in detail. Due to the very large number of test compounds (more than 60), a first screening was performed at a single inhibitor concentration of 1 µM.
(§2) Inhibitors were dissolved in DMSO at a concentration of 10 mM and stored at […]. Working solutions were prepared to achieve a final concentration of 1 µM in the enzyme assays.
(§3) Recombinant kinases were purified from E. coli as GST (glutathione S-transferase) fusion constructs by affinity adsorption to glutathione-Sepharose. […] Catalytic activity of the kinases was measured with the help of the Kinase-GLO^TM Luminescent Assay from Promega. Assays were performed in a total volume of 10 μL in kinase buffer (25 mM Hepes pH 7.4, 0.5 mM DTT, 5 mM MgCl2, 5 μM ATP) with appropriate peptide substrates (20 μM DYRKtide for the DYRKs and 100 μM DYRKtide for HIPK2, […]; or 100 μM RS peptide for CLK1, […]). Kinases amounts in the assays were adjusted so that approximately 90% of the ATP in the assay was consumed in control samples without inhibitor. Kinase reactions were incubated at room temperature for 30 min before 10 μL Kinase-GLO reagent was added for luminometric measurement of the ATP that was not consumed by the kinases. After incubation at room temperature for an additional 10 min, luminescence was recorded for 1 s (Berthold Orion Microplate Luminometer). ATP consumption in the control samples without inhibitor was set as 100% catalytic activity, and the inhibitory effects of the test compounds were calculated relative to this value.

The next assay has as its target T2, human recombinant MAO-A (Homo sapiens, UniProt P21397).
T2 sequence (P21397 1-527): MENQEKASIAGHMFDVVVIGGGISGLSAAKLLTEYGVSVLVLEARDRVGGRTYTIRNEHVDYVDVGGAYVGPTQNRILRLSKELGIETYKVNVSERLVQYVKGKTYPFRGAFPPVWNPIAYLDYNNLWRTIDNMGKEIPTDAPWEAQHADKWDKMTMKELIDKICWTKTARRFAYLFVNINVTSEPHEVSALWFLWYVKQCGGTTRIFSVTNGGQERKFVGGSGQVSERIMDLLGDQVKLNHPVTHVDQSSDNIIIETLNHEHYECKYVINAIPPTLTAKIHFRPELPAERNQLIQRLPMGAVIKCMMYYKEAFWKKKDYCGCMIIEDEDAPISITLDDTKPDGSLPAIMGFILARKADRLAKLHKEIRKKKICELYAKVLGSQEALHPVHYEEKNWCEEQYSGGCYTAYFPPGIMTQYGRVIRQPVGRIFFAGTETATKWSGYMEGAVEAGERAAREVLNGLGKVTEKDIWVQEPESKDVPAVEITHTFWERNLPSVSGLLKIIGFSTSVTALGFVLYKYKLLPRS
In words: MAO-GLO luminescence assay of MAO-A catalytic activity. As to conditions: read-out: MAO-A residual activity. On the procedure:
as §1, §2
Catalytic activity of monoamine oxidase A (MAO-A) was measured by using the luminescence-based MAO-GLO^TM Assay from Promega. Recombinant MAO-A converts a luminogenic MAO substrate into luciferin, which is, in turn, luminometrically detected in a luciferase reaction. The amount of light produced is directly proportional to MAO activity. […] Inhibitory effects of the tested compounds were calculated relative to the activity of control reactions that were run in the absence of inhibitors.

The target of assay [2] is T3, GST-CLK1cat (amino acids 141–484 of human CLK1) (Homo sapiens, UniProt P49759).
T3 construct: containing amino acids 141–484 of human CLK1; made in house; host or cells: E. coli
In words: Kinase-GLO luminescent assay of CLK1 catalytic activity. As to conditions: 1 µM inhibitor concentration; residual activity relative to control without inhibitor; read-out: CLK1 residual activity. On the procedure: as §1, §2, §3
Background: In Kinase-Glo more light means more ATP remaining.

Setting [3] is: 1 µM inhibitor concentration, residual activity relative to control without inhibitor.

T3 sequence (P49759 141-484): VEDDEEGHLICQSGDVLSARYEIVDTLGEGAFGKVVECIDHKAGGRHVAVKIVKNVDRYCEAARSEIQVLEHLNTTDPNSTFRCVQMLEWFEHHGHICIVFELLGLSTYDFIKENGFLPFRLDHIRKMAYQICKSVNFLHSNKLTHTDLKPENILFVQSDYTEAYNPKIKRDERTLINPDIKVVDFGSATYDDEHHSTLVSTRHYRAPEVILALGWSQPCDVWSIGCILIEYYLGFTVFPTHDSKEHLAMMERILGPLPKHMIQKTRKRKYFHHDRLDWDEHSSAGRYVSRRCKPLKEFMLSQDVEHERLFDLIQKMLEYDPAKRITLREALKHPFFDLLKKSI

For `Cc1nccc2c1[nH]c1c(Cl)c(Cl)ccc12` [AnnH63, 7,8-Dichloro-1-methyl-9H-pyrido[3,4-b]indole], the remaining activity at 1 µM in assay [1] (setting [3]) turned out to be 3%; at human recombinant MAO-A (setting [3]), 32%; in assay [2], 26%.

As to `COc1ccc2c3ccnc(C)c3n(Cc3ccccc3)c2c1` [AnnH4, 9-Benzyl-7-methoxy-1-methyl-9H-pyrido[3,4-b]indole], the results for the remaining activity at 1 µM (in assay [1] (setting [3]); at human recombinant MAO-A (setting [3])) were 88% and 80%, respectively.

Regarding `COc1ccc2c([nH]c3c(C)nccc32)c1Br` [AnnH5_3, 8-bromo-7-methoxy-1-methyl-9H-pyrido[3,4-b]indole], the figures for the remaining activity at 1 µM (in assay [1] (setting [3]); at human recombinant MAO-A (setting [3])) were 95% and 8%, respectively.

Take `COc1ccc2c(c1)[nH]c1c(Cl)nccc12` [AnnH24, 1-chloro-7-methoxy-9H-pyrido[3,4-b]indole]: the remaining activity at 1 µM at human recombinant MAO-A is 103%; in assay [2] it was 17%.

Consider `COc1ccc2c3ccnc(C)c3n(CC(N)=O)c2c1` [AnnH28, 2-(7-Methoxy-1-methyl-9H-pyrido[3,4-b]indol-9-yl)-N-acetamide], for which the remaining activity at 1 µM on human recombinant MAO-A (setting [3]) amounted to 131%; in assay [2], 89%.

For the compound `COc1ccc2c3c([nH]c2c1)C(=O)NCC3` [AnnH19, 7-methoxy-2,3,4,9-tetrahydro-1H-pyrido[3,4-b]indol-1-one], the values for the remaining activity at 1 µM in assay [1] (setting [3]) and in assay [2] were 122% and more than 90%, respectively.

For `COc1c(Br)cc2c([nH]c3c(C)nc(Br)cc32)c1Br` [AnnH5_4, 3,6,8-tribromoharmine], the remaining activity at 1 µM in assay [1] (setting [3]) was determined as 126%.

With `COc1c(Br)cc2c([nH]c3c(C)nccc32)c1Br` [AnnH5_1], the remaining activity at 1 µM stood at 101% in assay [1] (setting [3]) and 70% at human recombinant MAO-A (setting [3]).

Turning to `CCCCn1c2c(C)nccc2c2ccc(OC)c(Br)c21` [AnnH9, 8-Bromo-9-butyl-7-methoxy-1-methyl-9H-pyrido[3,4-b]indole], the results for the remaining activity at 1 µM (in assay [1] (setting [3]); on human recombinant MAO-A (setting [3])) were 96% and 8%, respectively.

`CCCCn1c2cc(OC)ccc2c2ccnc(C)c21` [AnnH3, 9-Butyl-7-methoxy-1-methyl-9H-pyrido[3,4-b]indole]: the figures for the remaining activity at 1 µM (at human recombinant MAO-A (setting [3]); in assay [2]) were 10% and 24%, respectively.

In the case of `COc1ccc2c3ccnc(C)c3n(CC(=O)O)c2c1` [AnnH25, 2-(7-Methoxy-1-methyl-9H-pyrido[3,4-b]indol-9-yl)acetic acid], the remaining activity at 1 µM at human recombinant MAO-A (setting [3]) worked out at 6%; in assay [2], 34%.

Take `COc1cc2[nH]c3c(C)nccc3c2cc1Cl` [AnnH6_3_2, 6-chloro-7-methoxy-1-methyl-9H-pyrido[3,4-b]indole]: the figures for the remaining activity at 1 µM (in assay [1] (setting [3]); on human recombinant MAO-A (setting [3])) were 92% and 9%, respectively.

In the case of `COc1ccc2c(c1)[nH]c1c(=O)[nH]ccc12` [AnnH20, 7-Methoxy-2,9-dihydro-1H-pyrido[3,4-b]indol-1-one], the remaining activity at 1 µM on human recombinant MAO-A amounted to 127%.

Turning to `COc1cc2[nH]c3c(C)nccc3c2cc1Br` [AnnH5_2], the results for the remaining activity at 1 µM (in assay [1] (setting [3]); on human recombinant MAO-A (setting [3])) were 88% and 7%, respectively.

As to `COc1c(Cl)cc2c([nH]c3c(C)nccc32)c1Cl` [AnnH6_3_1], the remaining activity at 1 µM in assay [1] (setting [3]) was found to be 99%; at human recombinant MAO-A (setting [3]) it was 64%.

For the compound `COc1ccc2c3ccnc(C)c3n(C)c2c1` [AnnH1], the remaining activity at 1 µM is 2% at human recombinant MAO-A (setting [3]) and 6% in assay [2].

`Cc1nccc2c1[nH]c1ccccc12` [harmane, reference compound]: the remaining activity at 1 µM in assay [1] came out at 97%; on human recombinant MAO-A, 18%.

As for `COc1ccc2c([nH]c3c(C)nccc32)c1Cl` [AnnH6_1, 8-chloro-7-methoxy-1-methyl-9H-pyrido[3,4-b]indole], the remaining activity at 1 µM is 97% in assay [1] (setting [3]) and 16% on human recombinant MAO-A (setting [3]).

With `COc1ccc2c3ccnc(C)c3n(CCN(C)C)c2c1` [AnnH16, [2-(7-Methoxy-1-methyl-9H-pyrido[3,4-b]indol-9-yl)-ethyl]-dimethylamine], the figures for the remaining activity at 1 µM (in assay [1] (setting [3]); on human recombinant MAO-A (setting [3])) were 107% and 103%, respectively.
